Results taken from patent US11766430B2, “Methods of using a phenoxypropylamine compound to treat pain” (Minerva Neurosciences, Inc., priority 2018, dated 2023).
Where “and” joins values, the source holds several entries; their conditions need not be identical. Equal entries are not always repeated.

Tested on: carrageenan-induced mechanical hyperalgesia in rats
Assay: Carrageenan-induced mechanical hyperalgesia, paw pressure test, time course to 240 min (Example 2)
Type: in vivo, male Sprague-Dawley rats
Conditions: for Effect on injured paw withdrawal threshold vs vehicle-treated group (in words): time course 30-240 min
Protocol: In this model, inflammation is induced by intraplantar injection of carrageenan (2%) into the right hindpaw of the rat. Three hours later, reaction thresholds are measured using the paw pressure test. Pressure is gradually applied to both hind paws (inflamed and control) of the rat, and reaction thresholds are determined as the pressure (g) required to elicit paw withdrawal or vocalization. Morphine (3 mg/kg, s.c.) was used as a positive control.
The experiments in this study used fifty (50) male Sprague-Dawley rats (SPF status, Janvier, France), each weighing 204-260 grams. The rats were housed in a temperature (20-24° C.) and relative humidity (45%-65%) controlled room and acclimated to an artificial day/night cycle of 12 hours light (6.30 a.m. to 6.30 p.m.)/12 hours darkness. Rats had free access to sterilized tap water and were fed ad libitum with pelleted complete diet (reference A04, S.A.F.E.). Rats were housed 4 per cage (cages Type E) and were acclimated for a period of at least 5 days before any testing. Each rat was identified by tail markings. Based on the SPF status of the animal facilities, there is no reason to expect that contaminants were present in the food, water or bedding, at levels capable of interfering with the results of the tests.
Pain Test: Static mechanical hyperalgesia was assessed using the Paw Pressure test or Randall & Selitto test (Randall, L. O. and Selitto, J. J., A method for measurement of analgesic activity on inflamed tissue, Arch Int Pharmacodyn, 1957(111): 409-419). This test requires the application of an increasing pressure on the hind paws between a flat surface and a blunt pointer. This test is usually used with animals with one hind paw inflamed by an injection or injured by ligation, and one normal hind paw, to evaluate drugs for analgesic action. The apparatus exerts a steadily increasing force and reaction threshold is determined as the pressure (g) required to elicit paw withdrawal and/or vocalization. In the experiment, animals were gently handled by the experimenter and static mechanical hyperalgesia was assessed. Each reaction threshold measurement was done for both hind paws.
Five (5) experimental groups of 10 rats each were used. Each group was first injected with of 100 μL of a 2% carrageenan suspension in the plantar aspect of the right hindpaw. Three hours after carrageenan injection, paw withdrawal threshold was measured using the paw pressure test (Baseline). The 5 groups were then administered the following: • Group 1: vehicle (0.5% HPMC), i.p., solution (negative control); • Group 2: MIN-117 (0.01 mg/kg, i.p.) in 0.5% HPMC, suspension; • Group 3: MIN-117 (0.1 mg/kg, i.p.) in 0.5% HPMC, suspension; • Group 4: MIN-117 (1 mg/kg, i.p.) in 0.5% HPMC, suspension; and • Group 5: morphine (3 mg/kg, s.c.) in 0.9% NaCl, solution (positive control).
After administering vehicle, MIN-117, or morphine, the antihyperalgesic effect of the compounds was evaluated using the paw pressure test at 0 min. (T0), 30 min., 60 min., 120 min., and 240 min.
Vehicle and MIN-117 were administered intraperitoneally at 10 mL/kg. Morphine was subcutaneously administered at 5 mL/kg. Dosing and testing were performed in a random order by a blinded experimenter except for the morphine-treated group. Doses were expressed in terms of free active substance. Rats were sacrificed at the end of the experiment by CO2 inhalation pending subsequent removal by a certified company.
Results were assessed as: the paw withdrawal threshold (mean±s.e.m.) in grams of contact pressure for each group, calculated from individual paw withdrawal thresholds; the percentage of variation of the paw withdrawal threshold calculated from the mean value of the vehicle-treated group; and/or the percentage of activity. To determine a statistical effect of the test substance and the reference substance, data were analyzed by a non-parametrical test. The significance level was p<0.05.

[1] = 0.01 mg/kg i.p., 30 min, hydrochloride
[2] = 0.01 mg/kg i.p., 60 min, hydrochloride
[3] = 0.01 mg/kg i.p., 120 min, hydrochloride
[4] = 0.01 mg/kg i.p., 240 min, hydrochloride
[5] = 0.01 mg/kg i.p., Baseline, hydrochloride
[6] = 0.01 mg/kg i.p., T0 (baseline before dosing)
[7] = 0.01 mg/kg i.p., T0 (baseline before dosing), hydrochloride
[8] = 0.01 mg/kg i.p., T0 + 30 min, hydrochloride
[9] = 0.01 mg/kg i.p., T0 + 60 min, hydrochloride
[10] = 0.1 mg/kg i.p., 30 min, hydrochloride
[11] = 0.1 mg/kg i.p., 60 min, hydrochloride
[12] = 0.1 mg/kg i.p., 120 min, hydrochloride
[13] = 0.1 mg/kg i.p., 240 min, hydrochloride
[14] = 0.1 mg/kg i.p., Baseline, hydrochloride
[15] = 0.1 mg/kg i.p., T0 (baseline before dosing)
[16] = 0.1 mg/kg i.p., T0 (baseline before dosing), hydrochloride
[17] = 1 mg/kg i.p., T0 (baseline before dosing)
[18] = 1 mg/kg i.p., T0 (baseline before dosing), hydrochloride
[19] = 1 mg/kg i.p., T0 + 30 min, hydrochloride

## Cc1nnc(-c2cc3c(OC[C@@H](O)CN4CCC(c5ccc(Cl)c(Cl)c5)CC4)cccc3o2)o1.Cl [MIN-117, (2S)-1-(4-(3,4-dichlorophenyl)piperidin-1-yl)-3-((2-(5-methyl-1,3,4-oxadiazol-2-yl)benzofuran-4-yl)oxy)propan-2-ol hydrochloride]
[1]
  Nociceptive threshold, control paw, individual rats: 360 g (4×) and 380 g (3×) and 420 g and 340 g and 280 g
  Nociceptive threshold, injured paw, individual rats: 180 g (3×) and 220 g and 160 g (2×) and 140 g (2×) and 200 g (2×)
[2]
  Nociceptive threshold, control paw, individual rats: 380 g and 340 g (3×) and 320 g (2×) and 360 g (2×) and 420 g and 300 g
  Nociceptive threshold, injured paw, individual rats: 220 g (3×) and 160 g (3×) and 180 g (2×) and 140 g (2×)
[3]
  Nociceptive threshold, control paw, individual rats: 440 g and 360 g (2×) and 340 g and 320 g and 400 g (2×) and 420 g (2×) and 380 g
  Nociceptive threshold, injured paw, individual rats: 300 g and 180 g (2×) and 160 g (2×) and 200 g (4×) and 220 g
[4]
  Nociceptive threshold, control paw, individual rats: 340 g and 360 g (2×) and 380 g (2×) and 300 g and 320 g (3×) and 420 g
  Nociceptive threshold, injured paw, individual rats: 200 g (3×) and 180 g (4×) and 160 g (2×) and 140 g
[5]
  Nociceptive threshold, control paw, individual rats: 400 g (3×) and 380 g (3×) and 320 g and 360 g and 340 g (2×)
  Nociceptive threshold, injured paw, individual rats: 240 g and 180 g (5×) and 200 g (2×) and 160 g (2×)
[6]
  % activity, injured paw: 2%
  % variation vs control paw, injured paw: −50%
  % variation vs vehicle-treated group, injured paw: 2%
[7]
  Nociceptive threshold, control paw (mean ± s.e.m.): 370.0 ± 9.1 g and 370 g
  Nociceptive threshold, injured paw (mean ± s.e.m.): 186 ± 7.3 g and 186 g
0.01 mg/kg i.p., T0 + 30 min
  % activity, injured paw: −1%
  % variation vs control paw, injured paw: −51%
  % variation vs pre-drug threshold, injured paw: −5%
  Nociceptive threshold, control paw (mean ± s.e.m.): 362 g
[8]
  % variation vs vehicle-treated group, injured paw: −1% and 1%
  Nociceptive threshold, injured paw (mean ± s.e.m.): 176 ± 8.3 g and 176 g
0.01 mg/kg i.p., T0 + 60 min
  % activity, injured paw: −6%
  % variation vs control paw, injured paw: −49%
  % variation vs pre-drug threshold, injured paw: −4%
  Nociceptive threshold, control paw (mean ± s.e.m.): 348 g
[9]
  % variation vs vehicle-treated group, injured paw: −5% and 5%
  Nociceptive threshold, injured paw (mean ± s.e.m.): 178 ± 10.1 g and 178 g
0.01 mg/kg i.p., T0 + 120 min
  % activity, injured paw: 9%
  % variation vs control paw, injured paw: −48%
  % variation vs pre-drug threshold, injured paw: 8%
  % variation vs vehicle-treated group, injured paw: 8%
  Nociceptive threshold, control paw (mean ± s.e.m.): 384 g
0.01 mg/kg i.p., T0 + 120 min, hydrochloride
  Nociceptive threshold, injured paw (mean ± s.e.m.): 200 ± 12.6 g and 200 g
0.01 mg/kg i.p., T0 + 240 min
  % activity, injured paw: −5%
  % variation vs control paw, injured paw: −49%
  % variation vs pre-drug threshold, injured paw: −4%
  % variation vs vehicle-treated group, injured paw: −4%
  Nociceptive threshold, control paw (mean ± s.e.m.): 350 g
0.01 mg/kg i.p., T0 + 240 min, hydrochloride
  Nociceptive threshold, injured paw (mean ± s.e.m.): 178 ± 6.3 g and 178 g
0.01 mg/kg i.p.
  Effect on injured paw withdrawal threshold vs vehicle-treated group (in words): did not induce any significant increase
[10]
  Nociceptive threshold, control paw, individual rats: 440 g and 320 g (3×) and 460 g and 300 g and 360 g and 340 g (3×)
  Nociceptive threshold, injured paw, individual rats: 200 g (4×) and 160 g (2×) and 180 g (4×)
[11]
  Nociceptive threshold, control paw, individual rats: 360 g (3×) and 300 g (2×) and 420 g and 400 g and 320 g (2×) and 340 g
  Nociceptive threshold, injured paw, individual rats: 180 g (2×) and 140 g and 160 g (3×) and 200 g (3×) and 220 g
[12]
  Nociceptive threshold, control paw, individual rats: 380 g and 280 g and 420 g (2×) and 300 g and 340 g (3×) and 360 g (2×)
  Nociceptive threshold, injured paw, individual rats: 160 g (3×) and 140 g and 220 g and 200 g (2×) and 180 g (3×)
[13]
  Nociceptive threshold, control paw, individual rats: 400 g (2×) and 320 g and 340 g and 280 g and 360 g (3×) and 380 g and 300 g
  Nociceptive threshold, injured paw, individual rats: 180 g (3×) and 160 g (3×) and 140 g and 220 g (2×) and 200 g
[14]
  Nociceptive threshold, control paw, individual rats: 420 g (2×) and 380 g (2×) and 400 g (2×) and 360 g (2×) and 340 g and 320 g
  Nociceptive threshold, injured paw, individual rats: 200 g (3×) and 180 g (3×) and 160 g (4×)
[15]
  % activity, injured paw: −2%
  % variation vs control paw, injured paw: −53%
  % variation vs vehicle-treated group, injured paw: −2%
[16]
  Nociceptive threshold, control paw (mean ± s.e.m.): 378.0 ± 10.5 g and 378 g
  Nociceptive threshold, injured paw (mean ± s.e.m.): 178 ± 5.5 g and 178 g
0.1 mg/kg i.p., T0 + 30 min
  % activity, injured paw: 3%
  % variation vs control paw, injured paw: −48%
  % variation vs pre-drug threshold, injured paw: 3%
  % variation vs vehicle-treated group, injured paw: 3%
  Nociceptive threshold, control paw (mean ± s.e.m.): 354 g
0.1 mg/kg i.p., T0 + 30 min, hydrochloride
  Nociceptive threshold, injured paw (mean ± s.e.m.): 184 ± 5.0 g and 184 g
0.1 mg/kg i.p., T0 + 60 min
  % activity, injured paw: −5%
  % variation vs control paw, injured paw: −48%
  % variation vs pre-drug threshold, injured paw: 1%
  % variation vs vehicle-treated group, injured paw: −4%
  Nociceptive threshold, control paw (mean ± s.e.m.): 348 g
0.1 mg/kg i.p., T0 + 60 min, hydrochloride
  Nociceptive threshold, injured paw (mean ± s.e.m.): 180 ± 7.9 g and 180 g
0.1 mg/kg i.p., T0 + 120 min
  % activity, injured paw: −5%
  % variation vs control paw, injured paw: −50%
  % variation vs pre-drug threshold, injured paw: 0%
  % variation vs vehicle-treated group, injured paw: −4%
  Nociceptive threshold, control paw (mean ± s.e.m.): 354 g
0.1 mg/kg i.p., T0 + 120 min, hydrochloride
  Nociceptive threshold, injured paw (mean ± s.e.m.): 178 ± 7.6 g and 178 g
0.1 mg/kg i.p., T0 + 240 min
  % activity, injured paw: −4%
  % variation vs control paw, injured paw: −49%
  % variation vs pre-drug threshold, injured paw: 1%
  % variation vs vehicle-treated group, injured paw: −3%
  Nociceptive threshold, control paw (mean ± s.e.m.): 350 g
0.1 mg/kg i.p., T0 + 240 min, hydrochloride
  Nociceptive threshold, injured paw (mean ± s.e.m.): 180 ± 8.4 g and 180 g
0.1 mg/kg i.p.
  Effect on injured paw withdrawal threshold vs vehicle-treated group (in words): did not induce any significant increase
[17]
  % activity, injured paw: 3%
  % variation vs control paw, injured paw: −50%
  % variation vs vehicle-treated group, injured paw: 3%
[18]
  Nociceptive threshold, control paw (mean ± s.e.m.): 374.0 ± 12.7 g and 374 g
  Nociceptive threshold, injured paw (mean ± s.e.m.): 188 ± 9.0 g and 188 g
1 mg/kg i.p., T0 + 30 min
  % activity, injured paw: 1%
  % variation vs control paw, injured paw: −49%
  % variation vs vehicle-treated group, injured paw: 1%
  Nociceptive threshold, control paw (mean ± s.e.m.): 356 g
[19]
  % variation vs pre-drug threshold, injured paw: −4% and 4%
  Nociceptive threshold, injured paw (mean ± s.e.m.): 180 ± 7.3 g and 180 g
1 mg/kg i.p., T0 + 60 min
  % activity, injured paw: 14%
  % variation vs control paw, injured paw: −45%
  % variation vs pre-drug threshold, injured paw: 13%
  % variation vs vehicle-treated group, injured paw: 13%
  Nociceptive threshold, control paw (mean ± s.e.m.): 380 g
1 mg/kg i.p., T0 + 60 min, hydrochloride
  Nociceptive threshold, injured paw (mean ± s.e.m.): 212 ± 12.4 g and 212 g
1 mg/kg i.p., T0 + 120 min
  % activity, injured paw: 29%
  % variation vs control paw, injured paw: −41%
  % variation vs pre-drug threshold, injured paw: 23%
  Nociceptive threshold, control paw (mean ± s.e.m.): 392 g
1 mg/kg i.p., T0 + 120 min, hydrochloride
  Nociceptive threshold, injured paw (mean ± s.e.m.): 232 ± 7.4 g and 232 g
1 mg/kg i.p., T0 + 240 min
  % activity, injured paw: 1%
  % variation vs control paw, injured paw: −49%
  % variation vs pre-drug threshold, injured paw: 0%
  % variation vs vehicle-treated group, injured paw: 1%
  Nociceptive threshold, control paw (mean ± s.e.m.): 370 g
1 mg/kg i.p., T0 + 240 min, hydrochloride
  Nociceptive threshold, injured paw (mean ± s.e.m.): 188 ± 6.1 g and 188 g
1 mg/kg i.p.
  Effect on injured paw withdrawal threshold vs vehicle-treated group (in words): slight increase in the nociceptive threshold becoming significant 120 min. after injection
